Legend:
Format in all cases: cell-based
U251 = experiment: NCI DTP in-vitro dose response, CNS Cancer; details: for GI50: read-out: GI50
SNB-19 = experiment: NCI DTP in-vitro dose response, CNS Cancer; details: for GI50: read-out: GI50
SF-268 = experiment: NCI DTP in-vitro dose response, CNS Cancer; details: for GI50: read-out: GI50
SNB-75 = experiment: NCI DTP in-vitro dose response, CNS Cancer; details: for GI50: read-out: GI50
SF-295 = experiment: NCI DTP in-vitro dose response, CNS Cancer; details: for GI50: read-out: GI50
SF-539 = experiment: NCI DTP in-vitro dose response, CNS Cancer; details: for GI50: read-out: GI50
HT29 = experiment: NCI DTP in-vitro dose response, Colon Cancer
KM12 = experiment: NCI DTP in-vitro dose response, Colon Cancer
HCT-15 = experiment: NCI DTP in-vitro dose response, Colon Cancer
HCT-116 = experiment: NCI DTP in-vitro dose response, Colon Cancer
SW-620 = experiment: NCI DTP in-vitro dose response, Colon Cancer
COLO 205 = experiment: NCI DTP in-vitro dose response, Colon Cancer
HCC-2998 = experiment: NCI DTP in-vitro dose response, Colon Cancer

O=C1c2ccccc2C(=O)c2c1ccc1nccnc21 [TABLE 5-4]
CC50 (U251): > 100 µM | TGI (U251): 4.29E−5 | Percent Growth (U251; Log10 Concentration −4.0): −21% | Percent Growth (U251; Log10 Concentration −5.0): 35% | Percent Growth (U251; Log10 Concentration −6.0): 89% | Percent Growth (U251; Log10 Concentration −7.0): 93% | Percent Growth (U251; Log10 Concentration −8.0): 96% | GI50 (U251): 5.38 µM | CC50 (SNB-19): > 100 µM | TGI (SNB-19): >1.00E−4 | Percent Growth (SNB-19; Log10 Concentration −4.0): 4% | Percent Growth (SNB-19; Log10 Concentration −5.0): 57% | Percent Growth (SNB-19; Log10 Concentration −6.0): 90% | Percent Growth (SNB-19; Log10 Concentration −7.0): 93% | Percent Growth (SNB-19; Log10 Concentration −8.0): 94% | GI50 (SNB-19): 13.4 µM | CC50 (SF-268): > 100 µM | TGI (SF-268): >1.00E−4 | Percent Growth (SF-268; Log10 Concentration −4.0): 1% | Percent Growth (SF-268; Log10 Concentration −5.0): 34% | Percent Growth (SF-268; Log10 Concentration −6.0): 86% | Percent Growth (SF-268; Log10 Concentration −7.0): 92% | Percent Growth (SF-268; Log10 Concentration −8.0): 96% | GI50 (SF-268): 4.98 µM | CC50 (SNB-75): > 100 µM | TGI (SNB-75): >1.00E−4 | Percent Growth (SNB-75; Log10 Concentration −4.0): 11% | Percent Growth (SNB-75; Log10 Concentration −5.0): 53% | Percent Growth (SNB-75; Log10 Concentration −6.0): 76% | Percent Growth (SNB-75; Log10 Concentration −7.0): 87% | Percent Growth (SNB-75; Log10 Concentration −8.0): 83% | GI50 (SNB-75): 11.9 µM | CC50 (SF-295): > 100 µM | TGI (SF-295): 3.23E−5 | Percent Growth (SF-295; Log10 Concentration −4.0): −24% | Percent Growth (SF-295; Log10 Concentration −5.0): 25% | Percent Growth (SF-295; Log10 Concentration −6.0): 95% | Percent Growth (SF-295; Log10 Concentration −7.0): 83% | Percent Growth (SF-295; Log10 Concentration −8.0): 90% | GI50 (SF-295): 4.35 µM | CC50 (SF-539): > 100 µM | TGI (SF-539): 5.37E−5 | Percent Growth (SF-539; Log10 Concentration −4.0): −9% | Percent Growth (SF-539; Log10 Concentration −5.0): 23% | Percent Growth (SF-539; Log10 Concentration −6.0): 64% | Percent Growth (SF-539; Log10 Concentration −7.0): 88% | Percent Growth (SF-539; Log10 Concentration −8.0): 90% | GI50 (SF-539): 2.18 µM

O=C1c2ccccc2C(=O)c2c1ccc1nccnc21 [TABLE 5-3]
CC50 (HT29): > 100 µM | TGI (HT29): >1.00E−4 | Percent Growth (HT29; Log10 Concentration −4.0): 1% | Percent Growth (HT29; Log10 Concentration −5.0): 46% | Percent Growth (HT29; Log10 Concentration −6.0): 74% | Percent Growth (HT29; Log10 Concentration −7.0): 95% | Percent Growth (HT29; Log10 Concentration −8.0): 99% | GI50 (HT29; read-out: GI50): 7.01 µM | CC50 (KM12): > 100 µM | TGI (KM12): 4.95E−5 | Percent Growth (KM12; Log10 Concentration −4.0): −18% | Percent Growth (KM12; Log10 Concentration −5.0): 40% | Percent Growth (KM12; Log10 Concentration −6.0): 76% | Percent Growth (KM12; Log10 Concentration −7.0): 90% | Percent Growth (KM12; Log10 Concentration −8.0): 89% | GI50 (KM12; read-out: GI50): 5.26 µM | CC50 (HCT-15): > 100 µM | TGI (HCT-15): 8.43E−5 | Percent Growth (HCT-15; Log10 Concentration −4.0): −3% | Percent Growth (HCT-15; Log10 Concentration −5.0): 37% | Percent Growth (HCT-15; Log10 Concentration −6.0): 77% | Percent Growth (HCT-15; Log10 Concentration −7.0): 84% | Percent Growth (HCT-15; Log10 Concentration −8.0): 88% | GI50 (HCT-15; read-out: GI50): 4.63 µM | CC50 (HCT-116): > 100 µM | TGI (HCT-116): >1.00E−4 | Percent Growth (HCT-116; Log10 Concentration −4.0): 3% | Percent Growth (HCT-116; Log10 Concentration −5.0): 55% | Percent Growth (HCT-116; Log10 Concentration −6.0): 91% | Percent Growth (HCT-116; Log10 Concentration −7.0): 99% | Percent Growth (HCT-116; Log10 Concentration −8.0): 96% | GI50 (HCT-116; read-out: GI50): 12.3 µM | CC50 (SW-620): > 100 µM | TGI (SW-620): 3.08E−5 | Percent Growth (SW-620; Log10 Concentration −4.0): −26% | Percent Growth (SW-620; Log10 Concentration −5.0): 25% | Percent Growth (SW-620; Log10 Concentration −6.0): 58% | Percent Growth (SW-620; Log10 Concentration −7.0): 87% | Percent Growth (SW-620; Log10 Concentration −8.0): 94% | GI50 (SW-620; read-out: GI50): 1.71 µM | CC50 (COLO 205): > 100 µM | TGI (COLO 205): 2.84E−5 | Percent Growth (COLO 205; Log10 Concentration −4.0): −35% | Percent Growth (COLO 205; Log10 Concentration −5.0): 29% | Percent Growth (COLO 205; Log10 Concentration −6.0): 74% | Percent Growth (COLO 205; Log10 Concentration −7.0): 86% | Percent Growth (COLO 205; Log10 Concentration −8.0): 92% | GI50 (COLO 205; read-out: GI50): 3.4 µM | CC50 (HCC-2998): > 100 µM | TGI (HCC-2998): 8.35E−5 | Percent Growth (HCC-2998; Log10 Concentration −4.0): −3% | Percent Growth (HCC-2998; Log10 Concentration −5.0): 40% | Percent Growth (HCC-2998; Log10 Concentration −6.0): 52% | Percent Growth (HCC-2998; Log10 Concentration −7.0): 94% | Percent Growth (HCC-2998; Log10 Concentration −8.0): 97% | GI50 (HCC-2998; read-out: GI50): 1.4 µM

CCc1nc2ccc3c(c2[nH]1)C(=O)c1ccccc1C3=O [TABLE 4-4]
CC50 (U251): > 100 µM | TGI (U251): >1.00E−4 | Percent Growth (U251; Log10 Concentration −4.0): 27% | Percent Growth (U251; Log10 Concentration −5.0): 49% | Percent Growth (U251; Log10 Concentration −6.0): 84% | Percent Growth (U251; Log10 Concentration −7.0): 96% | Percent Growth (U251; Log10 Concentration −8.0): 94% | GI50 (U251): 9.58 µM | CC50 (SNB-19): > 100 µM | TGI (SNB-19): >1.00E−4 | Percent Growth (SNB-19; Log10 Concentration −4.0): 39% | Percent Growth (SNB-19; Log10 Concentration −5.0): 61% | Percent Growth (SNB-19; Log10 Concentration −6.0): 92% | Percent Growth (SNB-19; Log10 Concentration −7.0): 94% | Percent Growth (SNB-19; Log10 Concentration −8.0): 84% | GI50 (SNB-19): 30.9 µM | CC50 (SF-268): > 100 µM | TGI (SF-268): >1.00E−4 | Percent Growth (SF-268; Log10 Concentration −4.0): 28% | Percent Growth (SF-268; Log10 Concentration −5.0): 57% | Percent Growth (SF-268; Log10 Concentration −6.0): 88% | Percent Growth (SF-268; Log10 Concentration −7.0): 96% | Percent Growth (SF-268; Log10 Concentration −8.0): 87% | GI50 (SF-268): 17.7 µM | CC50 (SNB-75): > 100 µM | TGI (SNB-75): >1.00E−4 | Percent Growth (SNB-75; Log10 Concentration −4.0): 17% | Percent Growth (SNB-75; Log10 Concentration −5.0): 41% | Percent Growth (SNB-75; Log10 Concentration −6.0): 49% | Percent Growth (SNB-75; Log10 Concentration −7.0): 66% | Percent Growth (SNB-75; Log10 Concentration −8.0): 66% | GI50 (SNB-75): 0.872 µM | CC50 (SF-295): > 100 µM | TGI (SF-295): >1.00E−4 | Percent Growth (SF-295; Log10 Concentration −4.0): 9% | Percent Growth (SF-295; Log10 Concentration −5.0): 35% | Percent Growth (SF-295; Log10 Concentration −6.0): 69% | Percent Growth (SF-295; Log10 Concentration −7.0): 90% | Percent Growth (SF-295; Log10 Concentration −8.0): 88% | GI50 (SF-295): 3.65 µM | CC50 (SF-539): > 100 µM | TGI (SF-539): >1.00E−4 | Percent Growth (SF-539; Log10 Concentration −4.0): 13% | Percent Growth (SF-539; Log10 Concentration −5.0): 46% | Percent Growth (SF-539; Log10 Concentration −6.0): 80% | Percent Growth (SF-539; Log10 Concentration −7.0): 83% | Percent Growth (SF-539; Log10 Concentration −8.0): 81% | GI50 (SF-539): 7.46 µM

— patent US8445492B2, “Method for inhibiting growth of cancer cells and cell telomere and diseases of cell proliferation by using heteroannelated anthraquinone derivative compounds” (National Defense Medical Center, priority 2008, dated 2013)
